We go through one molecule from article PMC12044458 (ACS Omega, 2025).

The subject of assay [1] is Poly(I:C) Na^+ (RNA, polymer, hypoxanthine (inosine) in place of every G of strand 1 (polyinosinic acid)) G/C. Nature of the assay: UV melting. The settings on record: PBS, 0 mM Mg2+, derived from two Tm (64 and 65), compound concentration not in material, per base.
Assay [2] relates to Poly(I:C) HMW (RNA, polymer, hypoxanthine (inosine) in place of every G of strand 1 (polyinosinic acid)) G/C. The assay can be described thus: UV melting. The settings on record: PBS, 0 mM Mg2+, derived from two Tm (67 and 67), compound concentration not in material, per base.

On to `CN(C)[C@@H]1C(=O)C(C(N)=O)=C(O)[C@@]2(O)C(=O)C3=C(O)c4c(O)cccc4[C@@](C)(O)[C@H]3C[C@@H]12`, for which the “melting temperature shift (ΔTm)” value in assay [1] is -1 °C; in assay [2], 0 °C.
